Data on one molecule can be found in US10143638B2, “Method of treating skin with ingenol mebutate” (LEO Laboratories Limited, priority 2009, dated 2018).

The assay relates to dermal fibroblasts. Put plainly: De novo hyaluronan molecular weight ([3H]-glucosamine incorporation, gel filtration). In kind it is cell-based, human. The following applies: PEP005 0.01-10 μg/ml, presence or absence of TGF-β1, day 1 and day 3. The protocol: Hyaluronan molecular weight sizing, following dermal fibroblast synthesis, was performed as previously described (Meran et al, 2008; Simpson et al, 2009). Dermal fibroblasts were seeded in 6-well tissue culture plates, in PEP005-free, Fibroblast-Serum Containing Medium (2 ml), at 1.5×10^5 cells/well. Dermal fibroblasts were maintained at 37° C., in a 5% CO2/95% air atmosphere, for 48 h, prior to washing in phosphate buffered saline (PBS, 2×2 ml) and maintenance in serum-free, Fibroblast-Serum Containing Medium (2 ml), for a further 48 h. At 48 h, the serum-free, Fibroblast-Serum Containing Medium was replenished with serum-free, Fibroblast-Serum Containing Medium (2 ml), containing 0 μg/ml, 0.01 μg/ml, 0.1 μg/ml, 1 μg/ml, 10 μg/ml or 100 μg/ml PEP005, +/−TGF-β1 (10 ng/ml) (three culture wells per PEP005 concentration), in addition to [^3H]-glucosamine (20 μCi/ml, G.E. Healthcare). The dermal fibroblasts were maintained at 37° C., in a 5% CO2/95% air atmosphere, for 24 h or 72 h. […]
Aliquots (20 μl×3) of each Extract fraction were transferred into scintillation vials, followed by the addition of 70% ethanol (600 μl) and liquid scintillant (4 ml). Scintillation vials were vortexed and [^3H]-incorporation quantified using a Packard Tri-Carb 1900CA Liquid Scintillation Analyzer (Perkin Elmer), with values obtained being expressed as disintegrations per minute (dpm). […]

Regarding `C/C=C(/C)C(=O)O[C@H]1C(C)=C[C@]23C(=O)[C@@H](C=C(CO)[C@@H](O)[C@]12O)[C@H]1[C@@H](C[C@H]3C)C1(C)C` [PEP005, ingenol-3-angelate], the “molecular weight of hyaluronan synthesized” value is “predominantly of high (>1.5×10^6 Da) and medium (<1.5×10^6-4×10^5 Da) molecular weight”.
